Tested on: patients having hormone refractory prostate cancer (HRPCa)
Experiment: Health-related quality-adjusted time-to-progression (QATTP) of disease, Kaplan-Meier product limit analysis, randomized placebo-controlled study
Assay type: in vivo, human
Procedure: The health-related QATTP of disease model for this invention expresses progression-free time as an equally preferable amount of time spent in full health. This is achieved by using patient-reported health-related QoL, as measured for the duration of observation or progression-free interval, to weight progression-free time. […] Patients received treatment with 10 mg (N=89) or 2.5 mg (N=95) of atrasentan or placebo (N=104) until experiencing a clinical event indicative of disease progression such as palliative opiate treatment of new bone or visceral pain, palliative radiation treatment of new bone pain, or new tumor growth symptoms requiring intervention or treatment with chemotherapy. Patient-reported health-related QoL data were collected with the EORTC QLQ-30 and the FACT-G and FACT-P, both of which were administered at baseline, at six week intervals and at each patient's final visit. The results from the 10 mg and 2.5 mg treatment groups are reported relative to the placebo group. A patient's transformed domain score and total score from both the EORTC QLQ-30 and FACT were used to weight the time-to-progression outcome data. Transformed domain scores ranged between 0 and 1, so the reported health-related QATTP of disease outcome was never larger than the actual time-to-progression. Each patient's health-related QATTP of disease was computed as the sum of the health-related QoL weights multiplied by the duration for which that patient experienced that health-related QoL. If a patient experienced a clinical event between two health-related QoL assessments, the set of health-related QoL domain scores immediately prior to the event were carried forward to the time of the clinical event. The mean and median health-related QATTP of disease outcomes were then estimated using Kaplan-Meier product limit methodology (Journal of the American Statistical Association, vol. 53, 1958, pp 457-481). The area under a Kaplan-Meier survival curve conveys an estimated mean health-related QATTP of disease. This analysis was applied to both intent-to-treat and per protocol population data. All health-related QATTP of disease comparisons between atrasentan and placebo treatment groups were based on a log-rank test with statistical significance at an α of 0.05. Results of the Kaplan-Meier product limit survival method analysis are reported in TABLE 2 (Intent to Treat) and TABLE 3 (Per Protocol Population). Mean and median health-related QATTP of disease are shown by treatment group. Log-rank tests comparing the differences between treatment groups are also reported.

[1] = EORTC Physical Functioning, 10 mg, intent to treat
[2] = EORTC Physical Functioning, 10 mg, per protocol
[3] = EORTC Role Functioning, 2.5 mg, intent to treat
[4] = EORTC Role Functioning, 2.5 mg, per protocol
[5] = EORTC Role Functioning, 10 mg, intent to treat
[6] = EORTC Role Functioning, 10 mg, per protocol
[7] = EORTC Sleep Disturbance, 2.5 mg, intent to treat
[8] = EORTC Sleep Disturbance, 2.5 mg, per protocol
[9] = EORTC Sleep Disturbance, 10 mg, intent to treat
[10] = EORTC Sleep Disturbance, 10 mg, per protocol
[11] = EORTC Social Functioning, 2.5 mg, intent to treat
[12] = EORTC Social Functioning, 2.5 mg, per protocol
[13] = EORTC Social Functioning, 10 mg, intent to treat
[14] = EORTC Social Functioning, 10 mg, per protocol
[15] = FACT Emotional Well Being, 2.5 mg, intent to treat
[16] = FACT Emotional Well Being, 2.5 mg, per protocol
[17] = FACT Emotional Well Being, 10 mg, intent to treat
[18] = FACT Emotional Well Being, 10 mg, per protocol
[19] = FACT Functional Well Being, 2.5 mg, intent to treat
[20] = FACT Functional Well Being, 2.5 mg, per protocol
[21] = FACT Functional Well Being, 10 mg, intent to treat
[22] = FACT Functional Well Being, 10 mg, per protocol
[23] = FACT Physical Well Being, 2.5 mg, intent to treat
[24] = FACT Physical Well Being, 2.5 mg, per protocol
[25] = FACT Physical Well Being, 10 mg, intent to treat
[26] = FACT Physical Well Being, 10 mg, per protocol
[27] = FACT Social/Family Well Being, 2.5 mg, intent to treat
[28] = FACT Social/Family Well Being, 2.5 mg, per protocol
[29] = FACT Social/Family Well Being, 10 mg, intent to treat
[30] = FACT Social/Family Well Being, 10 mg, per protocol
[31] = FACT Total, 2.5 mg, intent to treat
[32] = FACT Total, 2.5 mg, per protocol
[33] = FACT Total, 10 mg, intent to treat
[34] = FACT Total, 10 mg, per protocol
[35] = FACT-G, 2.5 mg, intent to treat
[36] = FACT-P, 2.5 mg, intent to treat

For CCCCN(CCCC)C(=O)CN1C[C@H](c2ccc3c(c2)OCO3)[C@@H](C(=O)O)[C@@H]1c1ccc(OC)cc1 [atrasentan, (2R,3R,4S)-2-(4-methoxyphenyl)-4-(1,3-benzodioxol-5-yl)-1-(((N,N-dibutylamino)carbonyl)methyl)pyrrolidine-3-carboxylic acid], the “QATTP of Disease Median” value (EORTC Physical Functioning, 2.5 mg, per protocol) was 124 days, the “QATTP of Disease Mean” value [1] was 164 days and the “QATTP of Disease Median” value [1] was 119 days. The “QATTP of Disease Mean” value [2] was 168 days, the “QATTP of Disease Median” value [2] was 127 days and the “QATTP of Disease Mean” value [3] was 176 days. For the same molecule, the “QATTP of Disease Median” value [3] was 128 days, the “QATTP of Disease Mean” value [4] was 185 days and the “QATTP of Disease Median” value [4] was 142 days. The “QATTP of Disease Mean” value [5] was 180 days, the “QATTP of Disease Median” value [5] was 123 days and the “QATTP of Disease Mean” value [6] was 187 days. For the same molecule, the “QATTP of Disease Median” value [6] was 128 days, the “QATTP of Disease Mean” value [7] was 172 days and the “QATTP of Disease Median” value [7] was 127 days. The “QATTP of Disease Mean” value [8] was 179 days, the “QATTP of Disease Median” value [8] was 137 days and the “QATTP of Disease Mean” value [9] was 158 days. For the same molecule, the “QATTP of Disease Median” value [9] was 123 days, the “QATTP of Disease Mean” value [10] was 162 days and the “QATTP of Disease Median” value [10] was 127 days. For the same molecule, the “QATTP of Disease Mean” value [11] was 184 days, the “QATTP of Disease Median” value [11] was 142 days and the “QATTP of Disease Mean” value [12] was 192 days. The “QATTP of Disease Median” value [12] was 156 days, the “QATTP of Disease Mean” value [13] was 190 days and the “QATTP of Disease Median” value [13] was 135 days. For the same molecule, the “QATTP of Disease Mean” value [14] was 196 days, the “QATTP of Disease Median” value [14] was 141 days and the “QATTP of Disease Mean” value [15] was 180 days. For the same molecule, the “QATTP of Disease Median” value [15] was 133 days, the “QATTP of Disease Mean” value [16] was 188 days and the “QATTP of Disease Median” value [16] was 147 days. The “QATTP of Disease Mean” value [17] was 163 days, the “QATTP of Disease Median” value [17] was 127 days and the “QATTP of Disease Mean” value [18] was 168 days. The “QATTP of Disease Median” value [18] was 131 days, the “QATTP of Disease Mean” value [19] was 161 days and the “QATTP of Disease Median” value [19] was 111 days. The “QATTP of Disease Mean” value [20] was 168 days, the “QATTP of Disease Median” value [20] was 111 days and the “QATTP of Disease Mean” value [21] was 140 days. The “QATTP of Disease Median” value [21] was 98 days, the “QATTP of Disease Mean” value [22] was 144 days and the “QATTP of Disease Median” value [22] was 113 days. For the same molecule, the “QATTP of Disease Mean” value [23] was 181 days, the “QATTP of Disease Median” value [23] was 135 days and the “QATTP of Disease Mean” value [24] was 191 days. The “QATTP of Disease Median” value [24] was 148 days, the “QATTP of Disease Mean” value [25] was 184 days and the “QATTP of Disease Median” value [25] was 127 days. For the same molecule, the “QATTP of Disease Mean” value [26] was 190 days, the “QATTP of Disease Median” value [26] was 130 days and the “QATTP of Disease Mean” value [27] was 160 days. The “QATTP of Disease Median” value [27] was 126 days, the “QATTP of Disease Mean” value [28] was 169 days and the “QATTP of Disease Median” value [28] was 143 days. For the same molecule, the “QATTP of Disease Mean” value [29] was 147 days, the “QATTP of Disease Median” value [29] was 121 days and the “QATTP of Disease Mean” value [30] was 151 days. The “QATTP of Disease Median” value [30] was 126 days, the “QATTP of Disease Mean” value [31] was 166 days and the “QATTP of Disease Median” value [31] was 125 days. For the same molecule, the “QATTP of Disease Mean” value [32] was 174 days, the “QATTP of Disease Median” value [32] was 135 days and the “QATTP of Disease Mean” value [33] was 152 days. For the same molecule, the “QATTP of Disease Median” value [33] was 117 days, the “QATTP of Disease Mean” value [34] was 157 days and the “QATTP of Disease Median” value [34] was 127 days. For the same molecule, the “QATTP of Disease Mean” value [35] was 172 days, the “QATTP of Disease Median” value [35] was 129 days and the “QATTP of Disease Mean” value (FACT-G, 2.5 mg, per protocol) was 180 days. The “QATTP of Disease Median” value (FACT-G, 2.5 mg, per protocol) was 143 days, the “QATTP of Disease Mean” value (FACT-G, 10 mg, intent to treat) was 160 days and the “QATTP of Disease Median” value (FACT-G, 10 mg, intent to treat) was 123 days. For the same molecule, the “QATTP of Disease Mean” value (FACT-G, 10 mg, per protocol) was 165 days, the “QATTP of Disease Median” value (FACT-G, 10 mg, per protocol) was 130 days and the “QATTP of Disease Mean” value [36] was 152 days. The “QATTP of Disease Median” value [36] was 115 days, the “QATTP of Disease Mean” value (FACT-P, 2.5 mg, per protocol) was 160 days and the “QATTP of Disease Median” value (FACT-P, 2.5 mg, per protocol) was 117 days. For the same molecule, the “QATTP of Disease Mean” value (FACT-P, 10 mg, intent to treat) was 135 days, the “QATTP of Disease Median” value (FACT-P, 10 mg, intent to treat) was 107 days and the “QATTP of Disease Mean” value (FACT-P, 10 mg, per protocol) was 139 days. For the same molecule, the “QATTP of Disease Median” value (FACT-P, 10 mg, per protocol) was 111 days, the “health-related QATTP over placebo” value (both 10 mg and 2.5 mg, per protocol population, after adjusting for health-related QoL effects) was “longer” and the “mean health-related QATTP's of disease” value (data in TABLE 3, both 10 mg and 2.5 mg treatment groups) was “both delays and improvement”. For the same molecule, the “differences in the QATTP across treatment groups” value (intent-to-treat population) was “no statistically significant differences”.

Source: US20030092757A1, “Favorable modulation of health-related quality of life and health-related quality-adjusted time-to-progression of disease in patients with prostate cancer” (priority 2001, published 2003)
